Reference: ChEMBL document CHEMBL1147360, “Conioidines A and B, novel DNA-interacting pyrrolidines from Chamaesaracha conioides” (J Nat Prod, 1993)
In brackets after ≈: the same amount, converted by molar mass.

Legend:
[1] = test system: KB; test: Cytotoxicity against human KB cells after 48 hrs; format: functional, cell-based
[2] = test system: KB; test: Cytotoxicity against human KB cells after 48 hrs in presence of exogenous DNA; format: functional, cell-based
[3] = test system: Calf thymus DNA; test: Binding affinity to calf thymus DNA; format: nucleic-acid assay, Bos taurus

Work on `C/C=C(\C)C(=O)OC(C)CC1CCCN1C(=O)CCCCCCCCC` (stereo not drawn) [CONIOIDINE A] yielded an IC50 [1] of 0.67 µg/mL (≈ 1.83 µM), an IC50 [2] of 2.1 µg/mL and a Kd [3] of 2800 nM.
